In patent US7709516B2, “Helix 12 directed non-steroidal antiandrogens” (Endorecherche, Inc., priority 2005, dated 2010):
Like-named read-outs stand apart in the source and are kept apart here.

What was measured:
[1] = system: Shionogi mouse mammary carcinoma cells; assay: Androgenic/antiandrogenic activity: inhibition of DHT-stimulated Shionogi cell number; format: cell-based; details: DHT-stimulated Shionogi cell number
[2] = biological target: T1, Human Androgen Receptor (Homo sapiens, UniProt P10275); assay: Androgen receptor binding assay ([3H]R1881, HAP) in cytosol of HEK-293 cells transfected with hAR; details: relative to R1881 = 100, transfected cells
T1 sequence (P10275 1-920): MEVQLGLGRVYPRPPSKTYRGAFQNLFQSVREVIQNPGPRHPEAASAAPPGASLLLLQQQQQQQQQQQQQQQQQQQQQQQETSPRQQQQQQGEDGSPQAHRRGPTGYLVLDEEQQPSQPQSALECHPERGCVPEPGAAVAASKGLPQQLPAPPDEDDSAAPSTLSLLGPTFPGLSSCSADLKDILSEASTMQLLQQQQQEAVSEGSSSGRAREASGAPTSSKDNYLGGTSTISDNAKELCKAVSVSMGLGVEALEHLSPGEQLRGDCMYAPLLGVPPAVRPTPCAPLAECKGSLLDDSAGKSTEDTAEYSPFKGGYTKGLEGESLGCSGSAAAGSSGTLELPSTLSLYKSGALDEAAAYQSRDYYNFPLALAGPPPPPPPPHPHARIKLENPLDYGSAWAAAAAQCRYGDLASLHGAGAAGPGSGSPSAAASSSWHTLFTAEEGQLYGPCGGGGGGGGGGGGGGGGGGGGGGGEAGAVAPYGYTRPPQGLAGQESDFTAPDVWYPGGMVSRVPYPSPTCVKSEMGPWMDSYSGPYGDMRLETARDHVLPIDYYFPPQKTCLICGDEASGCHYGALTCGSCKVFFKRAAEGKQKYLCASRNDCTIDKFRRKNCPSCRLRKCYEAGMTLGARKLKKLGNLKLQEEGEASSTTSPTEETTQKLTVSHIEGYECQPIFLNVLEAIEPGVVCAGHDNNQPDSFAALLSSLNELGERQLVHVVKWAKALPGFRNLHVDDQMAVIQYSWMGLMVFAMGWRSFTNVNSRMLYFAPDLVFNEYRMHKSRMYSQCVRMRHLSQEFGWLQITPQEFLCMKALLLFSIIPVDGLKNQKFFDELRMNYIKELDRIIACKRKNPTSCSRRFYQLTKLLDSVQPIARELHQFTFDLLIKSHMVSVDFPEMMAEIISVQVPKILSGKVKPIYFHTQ

[3] = system: rat prostate, seminal vesicle, levator ani muscle; assay: Systemic antiandrogenic activity in orchidectomized immature male rats with DHT implant; format: in vivo; details: Rattus norvegicus, 168 h, rat +DHT, 0.5 mg/animal daily 7 days
[4] = system: rat prostate, seminal vesicle, levator ani muscle; assay: Systemic androgenic activity in orchidectomized immature male rats; format: in vivo; details: for change in vivo at 0.2 mg: po, 168 h, 0.2 mg/animal daily 7 days
Text: Column 7 represents the % of androgenic efficacy in rat prostate, expressed in percentage of stimulation:
W is the weight of the prostate.
Column 8 represents the % of androgenic efficacy in rat seminal vesicle, expressed in percentage of stimulation:
W is the weight of the seminal vesicle.
Column 9 represents the % of androgenic efficacy in rat levator ani muscle, expressed in percentage of stimulation: […]
Immature male rats (Crl:CD(SD)Br) 22 to 24-day old were obtained from Charles-River, Inc. (St-Constant, Quebec, Canada) and housed up to 5 per cage in plastic bins in a temperature (23±1° C.)— and light (12 h light/day, lights on at 7h15)— controlled environment. The rats were fed rodent chow and tap water ad libitum. The day following their arrival, the animals were orchidectomized (CX) under Isoflurane anesthesia via scrotal route and randomly assigned to groups of 5 animals.
To evaluate the antiandrogenic activity, tested compounds were administered subcutaneously or orally once daily at a dose of 0.5 mg/animal for antiandrogenitic activity or 0.2 mg/animal for androgenic activity for 7 days (SD 1 to 7). Compounds were solubilized (when possible) in dimethylsulfoxide (DMSO, 10% final concentration) and administered as suspension in 0.4% methylcellulose. […] One group of animals received the antiandrogen Flutamide as reference. The animals were killed by cervical dislocation under isoflurane anesthesia on the 8th morning following castration. The ventral prostate and seminal vesicles were rapidly dissected and weighed.
3. Calculations and Statistical Analysis
W is the weight of the prostate, the seminal vesicle or levator ani.

[5] = Mus musculus, read-out: Shionogi Antiandrogenic Activity IC50, Table 2
[6] = read-out: Lev Ani % inhibition, Table 2, s.c. or p.o. (route not marked), levator ani
[7] = read-out: Prostate % inhibition, Table 2, s.c. or p.o. (route not marked)
[8] = read-out: SV % inhibition, Table 2, s.c. or p.o. (route not marked), seminal vesicle
[9] = Mus musculus, read-out: Shionogi Antiandrogenic Activity IC50, Table 1
[10] = Prostate cell, po, read-out: Lev Ani % inhibition, Table 1, p.o, levator ani
[11] = Prostate cell, po, read-out: SV % inhibition, Table 1, p.o, seminal vesicle
[12] = po, read-out: Prostate % inhibition, Table 1, p.o
[13] = Table 3, s.c. or p.o (route not marked)

Row | SMILES | IC50 [1, 5] | Human Androgen Receptor Binding (%) RBA R1881 = 100 ([2]; Table 2) | inhibition in vivo at 0.5 mg [3, 6] | inhibition in vivo at 0.5 mg [3, 7] | inhibition in vivo at 0.5 mg [3, 8] | IC50 [1, 9] | Human Androgen Receptor Binding (%) RBA R1881 = 100 ([2]; Table 1) | inhibition in vivo at 0.5 mg [3, 10] | inhibition in vivo at 0.5 mg [3, 11] | inhibition in vivo at 0.5 mg [3, 12] | further results
1 | CS(=O)(=O)c1ccc(OCCC2(O)CCN(c3ccc(C#N)c(C(F)(F)F)c3)CC2)cc1 [EM-8159] | 33.4 nM | <1.0% | 23% | 24% | 51% | – | – | – | – | – | –
2 | CCS(=O)(=O)c1ccc(OCCCN2C(=S)N(c3ccc(C#N)c(C(F)(F)F)c3)C(=O)C2(C)C)cc1 [EM-8188] | – | – | – | – | – | 13.9 nM | 15.6% | 68% | 85% | 45% | –
3 | CCCS(=O)(=O)c1ccc(OCCCN2C(=S)N(c3ccc(C#N)c(C(F)(F)F)c3)C(=O)C2(C)C)cc1 [EM-8225] | – | – | – | – | – | 22.4 nM | 25.8% | 53% | 79% | 45% | –
4 | CC(C)S(=O)(=O)c1ccc(OCCC2(O)CCN(c3ccc(C#N)c(C(F)(F)F)c3)CC2)cc1 [EM-8228] | 45.1 nM | <1.0% | 55% | 32% | 0% | – | – | – | – | – | –
5 | CCCS(=O)(=O)c1ccc(OCCC2(O)CCN(c3ccc(C#N)c(C(F)(F)F)c3)CC2)cc1 [EM-8229] | 49.8 nM | <1.0% | 16% | 3% | 19% | – | – | – | – | – | –
6 | CCS(=O)(=O)c1ccc(OCCC2(O)CCN(c3ccc(C#N)c(C(F)(F)F)c3)CC2)cc1 [EM-8230] | 75.9 nM | <1.0% | 35% | 0% | 23% | – | – | – | – | – | –
7 | Cc1cc(=O)oc2ccc(OCCCN3C(=S)N(c4ccc(C#N)c(C(F)(F)F)c4)C(=O)C3(C)C)cc12 [EM-8259] | – | – | – | – | – | 13.6 nM | 39.6% | 53% | 53% | 31% | –
8 | N#Cc1ccc(N2CCC(O)(CCOc3ccc4oc(=O)ccc4c3)CC2)cc1C(F)(F)F [EM-8284] | 12.8 nM | <1.0% | 21% | 0% | 0% | – | – | – | – | – | –
9 | Cc1cc(=O)oc2ccc(OCCC3(O)CCN(c4ccc(C#N)c(C(F)(F)F)c4)CC3)cc12 [EM-8285] | 18.3 nM | <1.0% | 0% | 0% | 0% | – | – | – | – | – | –
10 | Cc1cc(=O)oc2cc(OCCCN3C(=S)N(c4ccc(C#N)c(C(F)(F)F)c4)C(=O)C3(C)C)ccc12 [EM-8329] | – | – | – | – | – | 9.1 nM | 170.0% | 17% | 58% | 42% | –
11 | CC1(C)C(=O)N(c2ccc(C#N)c(C(F)(F)F)c2)C(=S)N1CCCOc1ccc(SC(F)(F)F)cc1 [EM-8342] | – | – | – | – | – | 66.7 nM | 0.5% | 53% | 79% | 43% | –
12 | CC1(C)C(=O)N(c2ccc(C#N)c(C(F)(F)F)c2)C(=S)N1CCCOc1ccc(CN2CCSCC2)cc1 [EM-8344] | – | – | – | – | – | 12.6 nM | 161.6% | 51% | 77% | 50% | –
13 | CCC(c1ccc(OCCCN2C(=S)N(c3ccc(C#N)c(Cl)c3C)C(=O)C2(C)C)cc1)N(C)C (stereo not drawn) [EM-8345] | – | – | – | – | – | – | – | – | – | – | Shionogi Antiandrogenic Activity IC50 ([1]; Table 3, agonist reported when compound stimulates the cells): Partial agonist; Human Androgen Receptor Binding (%) RBA R1881 = 100 ([2]; Table 3): 68%; change in vivo at 0.2 mg ([4]; Table 3, p.o (marked in prostate cell), read-out: % Stimulation Lev.Ani): 77%; change in vivo at 0.2 mg ([4]; Table 3, p.o (marked in prostate cell), read-out: % Stimulation SV): 18%; change in vivo at 0.2 mg ([4]; Table 3, p.o, read-out: % Stimulation Prostate): 42%
14 | CC1(C)C(=O)N(c2ccc(C#N)c(Cl)c2)C(=S)N1CCCOc1ccc(S(C)(=O)=O)cc1 [EM-8360] | – | – | – | – | – | 7.1 nM | 18.1% | 82% | 88% | 56% | –
15 | Cc1cc2c(C)c(C)c(=O)oc2cc1OCCCN1C(=S)N(c2ccc(C#N)c(C(F)(F)F)c2)C(=O)C1(C)C [EM-8385] | – | – | – | – | – | – | 50.5% | 20% | 41% | 17% | Shionogi Antiandrogenic Activity IC50 ([1]; Table 1): Partial agonist
16 | CC1(C)C(=O)N(c2ccc(C#N)c(C(F)(F)F)c2)C(=S)N1CCCOc1ccc2c(C(F)(F)F)cc(=O)oc2c1 [EM-8393] | – | – | – | – | – | 44.5 nM | 7.7% | 35% | 60% | 3% | –
17 | C[C@]12CC[C@H]3[C@@H](CCC4=CC(=O)CC[C@@]43C)[C@@H]1CC[C@@H]2O [Testo, reference compound] | – | – | – | – | – | – | – | – | – | – | IC50 ([1]; Table 3, agonist reported when compound stimulates the cells, read-out: Shionogi Antiandrogenic Activity IC50): 23 to 107 nM; % Stimulation Lev.Ani [4, 13]: 171%; % Stimulation Prostate [4, 13]: 99%; % Stimulation SV [4, 13]: 115%
